The target in the experiment is GST-tagged-Wee1 kinase (Homo sapiens, UniProt P30291). As to the kind of experiment: Wee1 time-resolved fluorescence equilibrium binding assay (displacement of Oregon Green-labeled ATP-competitive kinase probe). On the procedure: Wee1 kinase was assayed using a time-resolved fluorescence equilibrium binding assay monitoring displacement of a rapidly reversible Oregon Green-labeled ATP-competitive kinase probe (N-(2-(2-(2-(4-(4-(5-chloro-4-(2-(1-hydroxycyclobutyl)thiazol-5-yl)-1H-pyrrolo[2,3-b]pyridin-2-yl)phenyl)piperazin-1-yl)ethoxy)ethoxy)ethyl)-2′,7′-difluoro-3′,6′-dihydroxy-3-oxo-3H-spiro[isobenzofuran-1,9′-xanthene]-5-carboxamide) by competitive Wee1 inhibitors.
GST-tagged-Wee1 kinase, sequence (P30291 whole entry): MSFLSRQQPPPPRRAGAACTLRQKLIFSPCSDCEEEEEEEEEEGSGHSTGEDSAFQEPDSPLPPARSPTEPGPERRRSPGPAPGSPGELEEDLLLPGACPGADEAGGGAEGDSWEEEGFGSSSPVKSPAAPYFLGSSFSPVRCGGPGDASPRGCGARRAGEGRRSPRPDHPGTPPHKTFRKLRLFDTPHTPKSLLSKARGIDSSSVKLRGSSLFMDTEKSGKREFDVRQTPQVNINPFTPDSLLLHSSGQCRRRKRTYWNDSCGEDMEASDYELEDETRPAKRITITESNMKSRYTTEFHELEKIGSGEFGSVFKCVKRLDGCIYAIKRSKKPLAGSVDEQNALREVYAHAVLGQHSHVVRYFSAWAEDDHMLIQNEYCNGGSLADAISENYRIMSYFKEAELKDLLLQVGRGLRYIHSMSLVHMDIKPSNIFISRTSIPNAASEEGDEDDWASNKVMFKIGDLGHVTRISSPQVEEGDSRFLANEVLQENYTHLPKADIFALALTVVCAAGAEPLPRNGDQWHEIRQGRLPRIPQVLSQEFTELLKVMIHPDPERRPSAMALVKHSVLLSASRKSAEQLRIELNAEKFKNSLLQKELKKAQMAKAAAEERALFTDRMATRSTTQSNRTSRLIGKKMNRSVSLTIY
In general, Ki refers to the equilibrium dissociation constant of an inhibitor or competing ligand from its target. In turn, `O=c1c2cnc(Nc3ccc4c(c3)CNCC4)nc2c(-c2nccs2)nn1-c1c(Cl)cccc1Cl` [Example 346, 6-(2,6-dichlorophenyl)-2-(1,2,3,4-tetrahydroisoquinolin-7-ylamino)-8-(1,3-thiazol-2-yl)pyrimido[4,5-d]pyridazin-5(6H)-one] came in with a Ki of 210 pM. The figure for `Cc1ccccc1-n1nc(-c2ccccc2)c2nc(Nc3ccc(N4CCCC4=O)cc3)ncc2c1=O` [Example 141, 6-(2-methylphenyl)-2-{[4-(2-oxopyrrolidin-1-yl)phenyl]amino}-8-phenylpyrimido[4,5-d]pyridazin-5(6H)-one] is 7000 pM; for `CN1CCN(c2ccc(Nc3ncc4c(=O)n(-c5ccccc5Cl)nc(C5CCCC5)c4n3)cc2)CC1` [Example 55, 6-(2-chlorophenyl)-8-cyclopentyl-2-{[4-(4-methylpiperazin-1-yl)phenyl]amino}pyrimido[4,5-d]pyridazin-5(6H)-one] it is 2000 pM; for `CN1Cc2cc(Nc3ncc4c(=O)n(-c5c(Cl)cccc5Cl)nc(-c5cncs5)c4n3)ccc2C2(CC2)C1` [Example 317, 6-(2,6-dichlorophenyl)-2-[(2′-methyl-2′,3′-dihydro-1′H-spiro[cyclopropane-1,4′-isoquinolin]-7′-yl)amino]-8-(1,3-thiazol-5-yl)pyrimido[4,5-d]pyridazin-5(6H)-one] it is 380 pM. Molecule `COc1cc(Nc2ncc3c(=O)n(-c4ccccc4Cl)nc(-c4cccs4)c3n2)ccc1N1CCN(C(C)C)CC1` [Example 174, 6-(2-chlorophenyl)-2-{[4-(4-isopropylpiperazin-1-yl)-3-methoxyphenyl]amino}-8-(2-thienyl)pyrimido[4,5-d]pyridazin-5(6H)-one] registered a Ki of 100 pM. For `O=c1c2cnc(Nc3ccc4c(c3)CNCC43CC3)nc2c(-c2nccs2)nn1-c1c(Cl)cccc1Cl` [Example 345, 6-(2,6-dichlorophenyl)-2-(2′,3′-dihydro-1′H-spiro[cyclopropane-1,4′-isoquinolin]-7′-ylamino)-8-(1,3-thiazol-2-yl)pyrimido[4,5-d]pyridazin-5(6H)-one], the Ki is 340 pM. As for `C=CCn1nc(-c2cccs2)c2nc(Nc3ccc4c(c3)CN(C)CC43CC3)ncc2c1=O` [Example 117, 6-allyl-2-[(2′-methyl-2′,3′-dihydro-1′H-spiro[cyclopropane-1,4′-isoquinolin]-7′-yl)amino]-8-(2-thienyl)pyrimido[4,5-d]pyridazin-5(6H)-one], the Ki was 3000 pM.

Consider `Cc1nn(-c2c(Cl)cccc2Cl)c(=O)c2cnc(Nc3cccc(C(=O)N4CCC(N(C)C)CC4)c3)nc12` [Example 519, 6-(2,6-dichlorophenyl)-2-[(3-{[4-(dimethylamino)piperidin-1-yl]carbonyl}phenyl)amino]-8-methylpyrimido[4,5-d]pyridazin-5(6H)-one], for which affinity was put at a Ki of 750 pM.

`CC(=O)N1Cc2cc(Nc3ncc4c(=O)n(-c5c(Cl)cccc5Cl)nc(C(F)F)c4n3)ccc2C2(CC2)C1` [Example 415, 2-[(2′-acetyl-2′,3′-dihydro-1′H-spiro[cyclopropane-1,4′-isoquinolin]-7′-yl)amino]-6-(2,6-dichlorophenyl)-8-(difluoromethyl)pyrimido[4,5-d]pyridazin-5(6H)-one] gave a Ki of 1000 pM. The Ki values of the last two molecules are within 1.5-fold of each other. With `CN1Cc2cc(Nc3ncc4c(=O)n(-c5c(Cl)cccc5Cl)nc(C(F)F)c4n3)ccc2C2(CC2)C1` [Example 411, 6-(2,6-dichlorophenyl)-8-(difluoromethyl)-2-[(2′-methyl-2′,3′-dihydro-1′H-spiro[cyclopropane-1,4′-isoquinolin]-7′-yl)amino]pyrimido[4,5-d]pyridazin-5(6H)-one], the affinity, expressed as Ki, was 1000 pM.

The molecule `CN1CCN(c2ccc(Nc3ncc4c(=O)n(-c5c(Cl)cccc5Cl)nc(-c5ccn(CCO)n5)c4n3)cc2)CC1` [Example 270, 6-(2,6-dichlorophenyl)-8-[1-(2-hydroxyethyl)-1H-pyrazol-3-yl]-2-{[4-(4-methylpiperazin-1-yl)phenyl]amino}pyrimido[4,5-d]pyridazin-5(6H)-one] yielded a Ki below 1000 pM. Take `CC(=O)N1Cc2cc(Nc3ncc4c(=O)n(-c5c(Cl)cccc5Cl)nc(C)c4n3)ccc2C(C)(C)C1` [Example 439, 2-[(2-acetyl-4,4-dimethyl-1,2,3,4-tetrahydroisoquinolin-7-yl)amino]-6-(2,6-dichlorophenyl)-8-methylpyrimido[4,5-d]pyridazin-5(6H)-one]: the Ki stood at 690 pM. `O=c1c2cnc(Nc3ccc4c(c3)CNCC43CC3)nc2c(-c2ccncc2)nn1-c1c(Cl)cccc1Cl` [Example 253, 6-(2,6-dichlorophenyl)-2-(2′,3′-dihydro-1′H-spiro[cyclopropane-1,4′-isoquinolin]-7′-ylamino)-8-(pyridin-4-yl)pyrimido[4,5-d]pyridazin-5(6H)-one] gave a Ki of 90 pM. Molecule `Cc1nn(-c2c(Cl)cccc2Cl)c(=O)c2cnc(Nc3ccc4c(c3)CN(C(N)=O)CC43CC3)nc12` [Example 416, 7′-{[6-(2,6-dichlorophenyl)-8-methyl-5-oxo-5,6-dihydropyrimido[4,5-d]pyridazin-2-yl]amino}-1′H-spiro[cyclopropane-1,4′-isoquinoline]-2′(3′H)-carboxamide] displayed a Ki of 190 pM.

Turning to `Cc1nn(-c2c(Cl)cccc2Cl)c(=O)c2cnc(Nc3ccc4c(c3)CN(C)CC4(C)C)nc12` [Example 364, 6-(2,6-dichlorophenyl)-8-methyl-2-[(2,4,4-trimethyl-1,2,3,4-tetrahydroisoquinolin-7-yl)amino]pyrimido[4,5-d]pyridazin-5(6H)-one], affinity was put at a Ki of 610 pM. As for `Cc1nn(-c2c(Cl)cccc2Cl)c(=O)c2cnc(Nc3cccc(N4CCOCC4)c3)nc12` [Example 505, 6-(2,6-dichlorophenyl)-8-methyl-2-{[3-(morpholin-4-yl)phenyl]amino}pyrimido[4,5-d]pyridazin-5(6H)-one], the Ki is 2700 pM. Molecule `Cc1nn(-c2c(Cl)cccc2Cl)c(=O)c2cnc(Nc3ccc4c(c3)CN(S(C)(=O)=O)CC43CC3)nc12` [Example 427, 6-(2,6-dichlorophenyl)-8-methyl-2-{[2′-(methylsulfonyl)-2′,3′-dihydro-1′H-spiro[cyclopropane-1,4′-isoquinolin]-7′-yl]amino}pyrimido[4,5-d]pyridazin-5(6H)-one] showed an inhibition constant Ki of 910 pM. In the case of `CN1CCN(c2ccc(Nc3ncc4c(=O)n(-c5ccccc5Cl)nc(-c5ccccn5)c4n3)cc2)CC1` [Example 60, 6-(2-chlorophenyl)-2-{[4-(4-methylpiperazin-1-yl)phenyl]amino}-8-(pyridin-2-yl)pyrimido[4,5-d]pyridazin-5(6H)-one], the Ki amounted to 1000 pM. Consider `CN1Cc2cc(Nc3ncc4c(=O)n(-c5c(Cl)cccc5Cl)nc(-c5ccn(C)n5)c4n3)ccc2C2(CC2)C1` [Example 153, 6-(2,6-dichlorophenyl)-2-[(2′-methyl-2′,3′-dihydro-1′H-spiro[cyclopropane-1,4′-isoquinolin]-7′-yl)amino]-8-(1-methyl-1H-pyrazol-3-yl)pyrimido[4,5-d]pyridazin-5(6H)-one], for which the inhibition constant (Ki) was 50 pM. As for `CS(=O)(=O)N1CCN(c2ccc(Nc3ncc4c(=O)n(-c5c(Cl)cccc5Cl)nc(-c5ccncc5)c4n3)cc2)CC1` [Example 380, 6-(2,6-dichlorophenyl)-2-({4-[4-(methylsulfonyl)piperazin-1-yl]phenyl}amino)-8-(pyridin-4-yl)pyrimido[4,5-d]pyridazin-5(6H)-one], the Ki was 610 pM. This Ki is about 12-fold higher than that of the molecule before. With `Cc1cc(Nc2ncc3c(=O)n(-c4ncccc4Cl)nc(C)c3n2)ccc1N1CCCN(C)CC1` [Example 369, 6-(3-chloropyridin-2-yl)-8-methyl-2-(3-methyl-4-(4-methyl-1,4-diazepan-1-yl)phenylamino)pyridazino[4,5-d]pyrimidin-5(6H)-one], the Ki worked out at 1800 pM. Compared with the last molecule, the Ki is about 3-fold higher. Take `Cn1cnc(-c2nn(-c3ncccc3Cl)c(=O)c3cnc(Nc4ccc5c(c4)CNCC5)nc23)c1` [Example 353, 6-(3-chloropyridin-2-yl)-8-(1-methyl-1H-imidazol-4-yl)-2-(1,2,3,4-tetrahydroisoquinolin-7-ylamino)pyrimido[4,5-d]pyridazin-5(6H)-one]: the Ki was determined as 16000 pM. `Cc1nn(-c2c(Cl)cccc2Cl)c(=O)c2cnc(Nc3cccc(NC4CCN(C)CC4)c3)nc12` [Example 522, 6-(2,6-dichlorophenyl)-8-methyl-2-({3-[(1-methylpiperidin-4-yl)amino]phenyl}amino)pyrimido[4,5-d]pyridazin-5(6H)-one] came in with a Ki of 130 pM. This Ki lies about 120-fold lower than the previous one. `CC(=O)N1CCc2ccc(Nc3ncc4c(=O)n(-c5c(Cl)cccc5Cl)nc(C(F)F)c4n3)cc2C1` [Example 477, 2-[(2-acetyl-1,2,3,4-tetrahydroisoquinolin-7-yl)amino]-6-(2,6-dichlorophenyl)-8-(difluoromethyl)pyrimido[4,5-d]pyridazin-5(6H)-one]: the affinity corresponds to a Ki of 670 pM. In the case of `C=CCn1nc(-c2ccccc2F)c2nc(Nc3ccc(N4CCN(C)CC4)cc3)ncc2c1=O` [Example 35, 6-allyl-8-(2-fluorophenyl)-2-{[4-(4-methylpiperazin-1-yl)phenyl]amino}pyrimido[4,5-d]pyridazin-5(6H)-one], the affinity corresponds to a Ki of 18000 pM. Compared with the last molecule, the Ki is about 27-fold higher.

`Cc1nn(-c2c(Cl)cccc2Cl)c(=O)c2cnc(Nc3cccc(N4CCN(CCCCl)CC4)c3)nc12` [Example 507, 2-({3-[4-(3-chloropropyl)piperazin-1-yl]phenyl}amino)-6-(2,6-dichlorophenyl)-8-methylpyrimido[4,5-d]pyridazin-5(6H)-one] yielded a Ki of 2400 pM. In turn, `CN1CCN(c2ccc(Nc3ncc4c(=O)n(-c5ccccc5)nc(-c5cccc(Br)c5)c4n3)cc2)CC1` [Example 67, 8-(3-bromophenyl)-2-{[4-(4-methylpiperazin-1-yl)phenyl]amino}-6-phenylpyrimido[4,5-d]pyridazin-5(6H)-one] returned a Ki of 14000 pM. The molecule `CN1CCN(c2ccc(Nc3ncc4c(=O)n(-c5ccccc5)nc(-c5cccnc5Cl)c4n3)cc2)CC1` [Example 78, 8-(2-chloropyridin-3-yl)-2-{[4-(4-methylpiperazin-1-yl)phenyl]amino}-6-phenylpyrimido[4,5-d]pyridazin-5(6H)-one] yielded a Ki of 48000 pM.

(Values after patent US8796289B2 (AbbVie Inc., priority 2011, dated 2014).)
